Test results published in BigSolDB 2.1.

CC(=O)Oc1ccc(C(c2ccc(OC(C)=O)cc2)c2ccccn2)cc1
solubility (mole fraction)
Details	278.15 K	283.15 K	288.15 K	293.15 K	298.15 K	303.15 K	308.15 K	313.15 K	318.15 K	323.15 K
in ethanol	0.000239	0.000333	0.000452	0.000618	0.000835	0.0011	0.00145	0.00192	0.0025	0.00322
in isopropanol	0.000113	0.000162	0.000225	0.000311	0.000425	0.000579	0.000777	0.00104	0.00139	0.00179
in methanol	0.000551	0.000716	0.000931	0.00119	0.0015	0.0019	0.00239	0.00292	0.00364	0.00449
in water	9.39e-08	1.13e-07	1.35e-07	1.62e-07	1.91e-07	2.25e-07	2.64e-07	3.08e-07	3.57e-07	4.13e-07
